Results published in patent US6054441A, “Oxypurine nucleosides and their congeners, and acyl derivatives thereof, for improvement of hematopoiesis” (priority 1995, dated 2000).

What was measured:
Assay type in all cases: in vivo, Balb/C mice
[1] = test system: hematopoietic recovery after 5-fluorouracil; experiment: Hematopoietic recovery after 5-fluorouracil (Example 43)
Description: 5-fluorouracil (5-FU) (150 mg/kg,i.p.) was administered to fifty-four Balb/C female mice weighing approximately 20 grams each. Twenty-four hours later and each day thereafter for a total of 7 days, mice were given a 0.4 ml i.p. injection of either physiological saline (controls) or palmitoylguanosine (2.5 μmoles/mouse/day in 0.2% Tween 80). On days 8, 10 and 12 following administration of 5-FU nine animals from each group were bled and then sacrificed by cervical dislocation. Spleens were removed and weighed, and complete blood cell counts performed.

[2] = test system: hematopoietic recovery after cyclophosphamide; experiment: Timing of administration, hematopoietic recovery after cyclophosphamide (Example 41); conditions: day 7
Description: Cyclophosphamide (CP) (275 mg/kg, i.p.) was administered to 81 Balb/C female mice weighing approximately 20 grams each. Twenty-four hours later treatment was begun. Mice were given a 0.4 ml i.p. injection of either physiological saline (controls), Tween 80 (0.2%), or palmitoylguanosine (5 μmoles/mouse/day in 0.2% Tween 80). The timing of the treatments was varied within the groups. The control group was given saline on days 1-6. The mice receiving Tween 80 were treated either on days 1-4, 4-6 or 1-6. Palmitoylguanosine-treated mice were treated either on days 1-2, 1-4, 3-5, 4-6 or 1-6. If a group of mice received no Tween 80 or palmitoylguanosine on a given day, saline was administered by i.p. injection. Thus, there were 9 groups of 9 animals in all. On day 7 following CP administration all of the animals were bled and then sacrificed by cervical dislocation. Spleens were removed and weighed, and complete blood cell counts performed.

[3] = test system: hematopoietic recovery after cyclophosphamide; experiment: Hematopoietic recovery after cyclophosphamide, acyl chain length (Example 38); conditions: day 7
[4] = test system: hematopoiesis in normal mice; experiment: Hematopoiesis in normal mice (Example 56); conditions: day 5; 2.6 μmoles/mouse, 4 days
How it was run: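 Normal female Balb/C mice (~20 g; 3 per group) received daily i.p. saline or acylated guanosine derivatives (2.6 μmoles/mouse) for 4 days. On day 5, animals were bled and sacrificed. Spleen weights, complete blood counts and femoral marrow differential counts were recorded.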

[5] = test system: hematopoietic recovery after cyclophosphamide; experiment: Hematopoietic recovery after cyclophosphamide (Example 47)
Description: Cyclophosphamide (CP) (275 mg/kg, i.p.) was administered to 48 Balb/C female mice weighing approximately 20 grams each. Twenty-four hours later and each day thereafter for a total of 6 days, mice were given a 0.4 ml i.p. injection of either physiological saline (controls), benzoylguanosine (2.5 μmoles/mouse/day in 0.2% Tween 80), or palmitoylguanosine (2.5 μmoles/mouse/day in 0.2% Tween 80). On days 7 and 10 following CP administration 8 animals from each of the 3 groups were bled and then were sacrificed by cervical dislocation. Spleens were removed and weighed, and complete blood cell counts performed.

[6] = test system: hematopoiesis in normal mice; experiment: Hematopoiesis in normal mice (Example 44)
Description: Normal, otherwise untreated, female Balb/C mice weighing approximately 20 grams each received a total of 4 or 9 0.4 ml intraperitoneal injections (one per day) of either Tween-80 (0.2%) (controls), palmitoylguanosine (2.5 μmoles/mouse/day), or palmitoyldeoxyinosine (2.5 μmoles/mouse/day). Twenty-four hours after the 4th or 9th treatment, groups of 5 or 6 animals from each of the 3 groups were bled and then sacrificed by cervical dislocation. Spleens were removed and weighed, and complete blood cell counts performed.

irradiated mice = experiment: Survival of irradiated mice (Example 39); conditions: for mice surviving 30 days after irradiation over number irradiated: 50 mg/kg i.p., 6 days after irradiation
Description: Thirty female Balb/C mice weighing 20 grams each were irradiated with Cobalt 60 gamma radiation at a dose rate of 7.3 Rads per minute. The total dose was either 700, 725, or 750 Rads. Twenty-four hours later and each day thereafter for a total of 6 days, these mice received an i.p. injection of either physiological saline (controls) or 50 mg/kg of palmitoylguanosine. The number of animals surviving in each group was observed over a 30 day period.

[7] = test system: hematopoietic recovery after cyclophosphamide; experiment: Comparative dose-response, hematopoietic recovery after cyclophosphamide (Example 53)
Description: Cyclophosphamide (CP) (275 mg/kg, i.p.) was administered to 96 Balb/C female mice weighing approximately 20 grams each. Twenty-four hours later and each day thereafter mice were given a 0.4 ml i.p. injection of either physiological saline (controls), palmitoylguanosine at one of four different doses: 0.2, 0.4, 1.0 or 2.0 μmoles/mouse), or palmitoyldeoxyguanosine at a dose of 1.0 μmoles/mouse. On days 5 and 7 following CP administration 8 animals from each of the 6 groups were bled and then sacrificed by cervical dislocation. Spleens were removed and weighed, and complete blood cell counts performed.

[8] = day 5, palmitoylguanosine 2.0, palmitoyldeoxyguanosine 1.0 μmoles/mouse
[9] = day 7, palmitoylguanosine 1.0 and 2.0, palmitoyldeoxyguanosine 1.0 μmoles/mouse

## CCCCCCCCCCCCCCCC(=O)OC[C@H]1O[C@@H](n2cnc3c(=O)[nH]c(N)nc32)[C@H](O)[C@@H]1O
[1]; day 8, 2.5 μmoles/mouse/day i.p., vs control
  Platelets: significantly greater
[1]; day 10, vs control
  Platelets: greater numbers of platelets
[1]; day 10, vs saline
  spleen size: significantly larger
[1]; day 12
  number of neutrophils, fold greater than control: 3 fold
[1]; day 12, vs control
  spleen weight: more than double
[2]; 5 μmoles/mouse/day, any time period, vs saline
  spleen weight: significantly greater spleen weight
[2]; all periods except days 4-6, vs Tween 80
  total white blood cell (WBC) counts: significantly greater
[2]; any period, vs Tween 80
  spleen weight: larger spleens
[2]; each treatment period, vs saline
  total white blood cell (WBC) counts: significantly greater
[2]; treatment days 1-2 or 1-6
  lymphocyte counts: elevated lymphocyte counts
[2]; treatment days 1-4 or 1-6, among periods
  spleen weight: greatest effect on spleen weight
[2]; treatment days 1-6
  total neutrophil counts: greatest increase in total neutrophil counts
[2]; treatment days 1-6, vs other periods
  total white blood cell (WBC) counts: greatest effect
[2]; treatment days 1 and 2, vs saline or Tween 80
  total neutrophils: significant increase in total neutrophils
[3]
  white blood cell (WBC) counts: greatest effect on total WBC counts
[3]; guanosine 5, acyl derivatives 2.5 μmoles/mouse/day i.p.
  spleen weight: significantly larger spleens
[4]
  spleen weight: significantly elevated
[5]; day 7, 2.5 μmoles/mouse/day
  Neutrophils: significantly elevated
  spleen weight: significantly elevated
  total white blood cells: significantly elevated
[5]; day 10
  platelet number: significantly greater
[6]; day 5, 2.5 μmoles/mouse/day i.p.
  spleen weight: significantly greater
[6]; day 10, vs Tween 80
  total leukocyte counts: significantly elevated
Irradiated mice; 2 higher radiation doses, 30 days
  mice surviving: all of the mice treated with palmitoylguanosine survived
Irradiated mice; 725 R
  mice surviving 30 days after irradiation over number irradiated: 5/5
Irradiated mice; 750 R
  mice surviving 30 days after irradiation over number irradiated: 5/5
Irradiated mice; pretreatment prior to irradiation
  survival: improved survival
[7]; day 5, palmitoylguanosine 1.0 μmoles/mouse
  total neutrophil counts: significantly increased
[7]; [8]
  spleen weight: significantly elevated
  total neutrophil counts: significantly elevated
  white blood cell counts: significantly elevated
[7]; [9]
  spleen weight: significantly elevated
  total neutrophil counts: significantly elevated
  white blood cell counts: significantly elevated
